Assay [1] deals with T1, bovine MC4-R (Bos taurus, UniProt Q9GLJ8).
T1 construct: expressed in transfected cells; host or cells: human embryonic kidney 293 cells (ATCC CRL 1573), transient co-transfection of pcDNA3.1-bMC4R with the pGL2-promoter/CRE luciferase reporter
The assay can be described thus: CRE-luciferase reporter assay in human embryonic kidney 293 cells transiently co-transfected with bovine MC4-R. It is filed as cell-based. The settings on record: for Luciferase Activity: 18 hrs, transiently transfected human embryonic kidney 293 cells. Here is the method: The phagemid pBluescript-bMC4-R (10 μg) containing a full-length (1.9 kb) bovine MC4-R cDNA (SEQ ID NO:1) was digested using restriction endonucleases EcoRI (20 units, Gibco-BRL) and XhoI (20 units, Gibco-BRL) at 37° C. for 1 hr following the supplier's instructions. The resulting 1.9 kb bovine MC4-R cDNA fragment was then subcloned into the mammalian cell expression plasmid pcDNA3.1(+) (Invitrogen, Carlsband, Calif.) following standard cloning procedures (Sambrook et al., 1989, Molecular Cloning, A Laboratory Manual, Second Edition, Cold Spring Harbor Laboratory Press). The resulting bovine MC4-R expression plasmid, pcDNA3.1-bMC4R, was then used in conjunction with a reporter plasmid, pGL2-promoter/CRE (cyclic AMP activated transcription binding protein response element), to transiently co-transfect human embryonic kidney 293 cells (ATCC CRL 1573) using the LipofectAMINE PLUS reagent kit (Gibco-BRL, catalog no. 10964-013) following the supplier's instructions.
The pGL2-promoter/CRE plasmid, containing tandem cAMP activated transcription binding protein response elements from the rat somatostatin gene (Vallejo, et al., 1992, J. Biol. Chem. 267(18):12868-12875) and human chorionic gonadotropin (hCG) gene (Deutsch, et al., 1987, J. Biol. Chem. 262(25):12169-12174), was prepared following standard cloning procedures (Sambrook et al., supra). In brief, the plasmid was constructed by inserting a double stranded oligonucleotide linker, CRE-2 (SEQ ID NO:22), containing the rat somatostatin CRE sequence (5′-[…]-3′; SEQ ID NO:20), the human chorionic gonadotropin (hCG) CRE sequence (5′-AAATTGACGTCATGGTAA-3′; SEQ ID NO:21), and MluI and BglII cohesive ends, into the MluI and BglII sites, respectively, of plasmid pGL2-promoter (Promega, Madison, Wis., catalog no. E1631). The CRE-2 linker had the structure:
The CRE-2 oligonuceotide linker was prepared by first synthesizing the CREA and CREB oligonucleotides, including the MluI and BglII cohesive ends, using a DNA synthesizer Model 370 from PE-Biosystems (Foster City, Calif.). […]

The target in assay [2] is bovine melanocortin 4 receptor protein (MC4-R) (bovine). The assay can be described thus: cell-based or functional assay.

Values joined by “and” are separate entries in the source; they are usually repeats but may differ in a detail not shown here. Identical values can stand only once. Ends that are not written are not given here.

T1 sequence (Q9GLJ8 whole entry): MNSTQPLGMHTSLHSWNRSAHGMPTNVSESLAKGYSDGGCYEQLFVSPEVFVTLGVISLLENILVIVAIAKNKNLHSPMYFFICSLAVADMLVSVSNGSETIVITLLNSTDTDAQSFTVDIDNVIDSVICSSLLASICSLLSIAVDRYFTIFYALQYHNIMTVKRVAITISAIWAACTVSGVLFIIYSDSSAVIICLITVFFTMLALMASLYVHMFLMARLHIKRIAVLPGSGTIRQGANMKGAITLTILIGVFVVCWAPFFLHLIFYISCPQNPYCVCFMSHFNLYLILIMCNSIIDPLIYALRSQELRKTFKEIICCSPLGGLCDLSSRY

As to α-MSH, the “Activation of cloned bovine MC4-R expressed in 293 cells” value in assay [1] (human embryonic kidney 293 cells) is “activated”. In addition, the “Luciferase Activity” value in assay [1] (α-MSH 1 nM) is 24.80 and 26.67; in assay [1] (α-MSH 10 nM) it was 35.13 and 37.13.

B1: human α-MSH (peptide, UniProt P01189 138-150, looked up)
peptide: SYSMEHFRWGKPV
modifications: ends and bridges not checked
On to B1, for which, in assay [2], the Luciferase Activity (CRE-luciferase reporter, 293 cells), 0 nM α-MSH (baseline without ligand) is 8.19 and 7.78; the Luciferase Activity (CRE-luciferase reporter, 293 cells), 1 nM α-MSH is 24.8 and 26.7; the Luciferase Activity (CRE-luciferase reporter, 293 cells), 10 nM α-MSH is 35.1 and 37.1.

These data come from patent US20030082678A1, “Methods and compositions for regulating body weight in bovine species” (priority 2001, published 2003).
